# According to US4921847A, “Trihalo(amine)gold(III) anti-tumor complexes” (Engelhard Corporation, priority 1989, dated 1990):
# How the values were obtained:
# S180 ascites = test: Anti-tumor evaluation against S180 ascites in mice (% increase in life span, survivors); assay type: in vivo, female CFW Swiss mice; conditions: S 180 ascites; for Survivors: day of evaluation; for Anti-tumor activity (in words): 50% ILS criterion
# Procedure: The above prepared compounds were evaluated against S180 ascites in female CFW Swiss mice. The mice were weighed (average weight: 20 g), placed into cages (six mice to a cage) and on day zero the mice were inoculated with 0.2 ml of a freshly prepared saline suspension (0.15 M NaCl) containing 1×10^7 tumor cells/ml or a total of 2×10^6 cells. This inoculum was freshly prepared using "transfer" mice which had been injected with tumor cells the previous week; it was obtained via the following steps: (1) the removal of cells from the peritoneal cavity of the sacrificed transfer mouse, (2) alternate centrifugation and washing operations (2-3 times with cold saline) to remove blood and other components, and (3) dilution of the volume of the packed cell with saline (1:3). A final centrifugation was carried out at 1000 RPM over a two minute period. A cell count was made on a 2,000-fold dilution of this 1:3 suspension by means of a Coulter Counter. A final dilution to 1×10^7 cells/ml was made based on the average count.
# On day 1, solutions of the test compounds were prepared and each mouse in a set of six were injected with the same test compound at the same dosage. The doses were based on the average weight of the animals (cage weight). Also, beginning on day 1 two controls were employed containing six mice per control:
# (1) Normal Control: This consisted solely of the carrier or diluent used in combination with the test compound; and
# (2) Positive Control: This consisted solely of the known anti-tumor agent cis-[Pt(NH3)2 Cl2 ] (Cisplatin) in saline (8 mg/kg) to test the response of the biological system.
# The effectiveness of a test compound was measured in terms of the % increase in life span (%ILS) of the test mice relative to the Normal Control (Calculated from the day of tumor inoculation, i.e., day zero). To standardize the test data and permit intercomparisons, the day of evaluation was arbitrarily taken as that day corresponding to twice the mean life span (or average day of death) of the control. This established a practical upper limit of 100% on the %ILS attainable. For calculation purposes the survivors on the day of evaluation were considered to have died on that day. The %ILS was calculated as follows: [formula] ILS values in excess of 50% were interpreted as being indicative of anti-tumor activity, whereas, values in excess of 75% indicated excellent activity.
# The products of Examples 1, 4, 10 and 11 were administered in a freshly prepared 1% sodium bicarbonate solution; the remaining test compounds were administered as slurries in 0.5% "Klucel" (hydroxypropylcellulose).
# Sarcoma 180 tumors = test: Therapeutic index (LD50/ED90), implanted Sarcoma 180 tumors; assay type: in vivo, Swiss white mice; parameters: ED90: unit not given here; conditions: for Therapeutic Index: LD50/ED90; for Maximum % ILS (Dosage): S 180 ascites; for ED90: dose giving 50% increase in life span for 90% of the animals, determined graphically
# Solubility = assay type: physicochemical
Compound,peak ILS values (S180 ascites) [%],% ILS (S180 ascites; 10 mg/kg) [%],Survivors (S180 ascites; 10 mg/kg),% ILS (S180 ascites; 20 mg/kg) [%],Survivors (S180 ascites; 20 mg/kg),% ILS (S180 ascites; 40 mg/kg) [%],Survivors (S180 ascites; 40 mg/kg),% ILS (S180 ascites; 80 mg/kg) [%],Survivors (S180 ascites; 80 mg/kg),% ILS (S180 ascites; 160 mg/kg) [%],Survivors (S180 ascites; 160 mg/kg),% ILS (S180 ascites; 320 mg/kg) [%],Survivors (S180 ascites; 320 mg/kg),Therapeutic Index (Sarcoma 180 tumors),ED90 (Sarcoma 180 tumors),solubility in 1% sodium bicarbonate solution (Solubility) [mg/mL],Anti-tumor activity (in words) (S180 ascites),Maximum % ILS (Dosage) (Sarcoma 180 tumors; 40 mg/kg) [%],also measured
"O=C(O)c1ccc[n+]([Au-]([Cl])([Cl])[Cl])c1 [Example 1, Trichloro(Nicotinic Acid)Gold(III)]",> 90,-3,0 of 6,60,3 of 6,91,3 of 6,98,4 of 6,1,0 of 6,-69,0 of 6,5.8,31,12.8,,,Maximum % ILS (Dosage) (Sarcoma 180 tumors; 80 mg/kg): 98%
"Cn1cc[n+]([Au-]([Cl])([Cl])[Cl])c1 [Example 2, Trichloro(N-Methylimidazole)Gold(III)]",> 90,14,0 of 6,33,1 of 6,91,4 of 6,53,1 of 6,-93,0 of 6,,,2.8,31,,decidedly active,91,% ILS (S180 ascites; 5 mg/kg): 2%; Survivors (S180 ascites; 5 mg/kg): 0 of 6; active dose range (S180 ascites; decidedly active within the range): 20 to 40 mg/kg
"CC(=O)c1ccc[n+]([Au-]([Cl])([Cl])[Cl])c1 [Example 3, trichloro(3-acetylpyridine)gold(III)]",> 90,-5,0 of 6,42,1 of 6,97,5 of 6,66,4 of 6,23,0 of 6,-90,0 of 6,4.5,31,,,97,
"O=C(O)Cc1ccc[n+]([Au-]([Cl])([Cl])[Cl])c1 [Example 4, trichloro(3-pyridyacetic acid)gold(III)]",,6,0 of 6,-15,0 of 6,63,1 of 6,57,1 of 6,-41,0 of 6,-90,0 of 6,1.8,84,12.8,pronounced antitumor effect,63,
Oc1ccc[n+]([Au-]([Cl])([Cl])[Cl])c1 [Example 5],,9,0 of 6,39,2 of 6,61,3 of 6,30,2 of 6,-36,0 of 6,-85,0 of 6,,87,,,61,
OCc1ccc[n+]([Au-]([Cl])([Cl])[Cl])c1 [Example 6],,6,0 of 6,63,1 of 6,85,3 of 6,46,0 of 6,-70,0 of 6,-93,0 of 6,2.1,43,,,85,
